# Patent US20260356840A1, “[1,2,4]TRIAZOLO[1,5-A]PYRIMIDINONE WRN INHIBITORS” (Nimbus Wadjet, Inc., priority 2023, published 2026)
# Target: T1, human Werner helicase (Uniprot Q14191, amino acids 517-1235 with L1074F point mutation), WRN-BV08 (Homo sapiens, UniProt Q14191, L1074F)
# T1 construct: Uniprot Q14191, amino acids 517-1235 with L1074F point mutation; TEV cleavable 8xHis tag (C, cleaved yes); made in house; host or cells: Sf9 insect cells (baculovirus, pFastBac)
# Assay: WRN (BV08) ADP-Glo Assay
# Assay type: biochemical
# T1 sequence (Q14191 517-1235 L1074F): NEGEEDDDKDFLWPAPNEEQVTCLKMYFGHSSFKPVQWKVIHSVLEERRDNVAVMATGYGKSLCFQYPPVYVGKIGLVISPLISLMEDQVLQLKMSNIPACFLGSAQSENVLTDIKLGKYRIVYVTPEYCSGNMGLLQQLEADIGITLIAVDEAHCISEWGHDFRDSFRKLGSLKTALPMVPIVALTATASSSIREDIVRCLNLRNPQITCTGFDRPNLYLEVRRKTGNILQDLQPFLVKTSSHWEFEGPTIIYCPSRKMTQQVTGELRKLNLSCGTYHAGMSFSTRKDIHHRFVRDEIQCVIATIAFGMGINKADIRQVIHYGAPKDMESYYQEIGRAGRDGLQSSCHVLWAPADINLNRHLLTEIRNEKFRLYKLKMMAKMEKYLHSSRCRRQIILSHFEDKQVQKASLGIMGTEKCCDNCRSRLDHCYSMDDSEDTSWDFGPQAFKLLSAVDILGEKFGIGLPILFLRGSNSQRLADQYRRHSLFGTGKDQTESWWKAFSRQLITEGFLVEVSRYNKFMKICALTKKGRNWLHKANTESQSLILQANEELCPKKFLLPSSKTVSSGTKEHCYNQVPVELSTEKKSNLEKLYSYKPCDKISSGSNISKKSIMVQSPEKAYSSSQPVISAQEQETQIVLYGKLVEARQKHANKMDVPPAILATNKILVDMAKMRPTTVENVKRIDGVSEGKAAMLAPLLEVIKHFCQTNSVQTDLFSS
row,Compound,IC50 [nM]
1,"CCc1c(N2CCN(C(=O)c3nsnc3O)CC2)c(=O)n2nc(C3=CCOCC3)nc2n1CC(=O)Nc1ccc(C(F)(F)F)cc1Cl [Compound I-27, N-[2-chloro-4-(trifluoromethyl)phenyl]-2-[2-(3,6-dihydro-2H-pyran-4-yl)-5-ethyl-6-[4-(4-hydroxy-1,2,5-thiadiazole-3-carbonyl)piperazin-1-yl]-7-oxo-4H,7H-[1,2,4]triazolo[1,5-a]pyrimidin-4-yl]acetamide]",5 to 50
2,"CCc1c(N2CCN(C(=O)c3ncnc(C)c3O)CC2)c(=O)n2nc(-c3ccnc(OC(F)F)c3)nc2n1CC(=O)Nc1ccc(C(F)(F)F)cc1Cl [Compound I-44, N-[2-chloro-4-(trifluoromethyl)phenyl]-2-{2-[2-(difluoromethoxy)pyridin-4-yl]-5-ethyl-6-[4-(5-hydroxy-6-methylpyrimidine-4-carbonyl)piperazin-1-yl]-7-oxo-4H,7H-[1,2,4]triazolo[1,5-a]pyrimidin-4-yl}acetamide]",5 to 50
3,"CCc1c(N2CCN(C(=O)c3cnn(C)c3C)CC2)c(=O)n2nc(-c3ccnc(OC)c3)nc2n1CC(=O)Nc1ccc(C(F)(F)F)cc1Cl [Compound I-49, N-[2-chloro-4-(trifluoromethyl)phenyl]-2-{6-[4-(1,5-dimethyl-1H-pyrazole-4-carbonyl)piperazin-1-yl]-5-ethyl-2-(2-methoxypyridin-4-yl)-7-oxo-4H,7H-[1,2,4]triazolo[1,5-a]pyrimidin-4-yl}acetamide]",5 to 50
4,"CCc1c(N2CCN(C(=O)c3cc(C)ns3)CC2)c(=O)n2nc(-c3ccnc(OC)c3)nc2n1CC(=O)Nc1ccc(C(F)(F)F)cc1Cl [Compound I-76, N-[2-chloro-4-(trifluoromethyl)phenyl]-2-[5-ethyl-2-(2-methoxypyridin-4-yl)-6-[4-(3-methyl-1,2-thiazole-5-carbonyl)piperazin-1-yl]-7-oxo-4H,7H-[1,2,4]triazolo[1,5-a]pyrimidin-4-yl]acetamide]",5 to 50
5,"CCc1c(N2CCN(C(=O)C(C)(C)O)CC2)c(=O)n2nc(C3=CCOCC3)nc2n1CC(=O)Nc1ccc(C(F)(F)F)cc1Cl [Compound I-18, N-[2-chloro-4-(trifluoromethyl)phenyl]-2-[2-(3,6-dihydro-2H-pyran-4-yl)-5-ethyl-6-[4-(2-hydroxy-2-methylpropanoyl)piperazin-1-yl]-7-oxo-4H,7H-[1,2,4]triazolo[1,5-a]pyrimidin-4-yl]acetamide]",50 to 100
6,"CCc1c(N2CCN(C(=O)c3ccnc(OC)c3O)CC2)c(=O)n2nc(C3=CCOCC3)nc2n1CC(=O)Nc1ccc(C(F)(F)F)cc1Cl [Compound I-34, N-[2-chloro-4-(trifluoromethyl)phenyl]-2-[2-(3,6-dihydro-2H-pyran-4-yl)-5-ethyl-6-[4-(3-hydroxy-2-methoxypyridine-4-carbonyl)piperazin-1-yl]-7-oxo-4H,7H-[1,2,4]triazolo[1,5-a]pyrimidin-4-yl]acetamide]",5 to 50
7,"CCc1c(N2CCN(C(=O)c3nocc3O)CC2)c(=O)n2nc(C3=CCOCC3)nc2n1CC(=O)Nc1ccc(C(F)(F)F)cc1Cl [Compound I-29, N-[2-chloro-4-(trifluoromethyl)phenyl]-2-[2-(3,6-dihydro-2H-pyran-4-yl)-5-ethyl-6-[4-(4-hydroxy-1,2-oxazole-3-carbonyl)piperazin-1-yl]-7-oxo-4H,7H-[1,2,4]triazolo[1,5-a]pyrimidin-4-yl]acetamide]",< 5
8,"CCc1c(N2CCN(C(=O)c3cnc(C)o3)CC2)c(=O)n2nc(-c3ccnc(OC)c3)nc2n1CC(=O)Nc1ccc(C(F)(F)F)cc1Cl [Compound I-67, N-[2-chloro-4-(trifluoromethyl)phenyl]-2-[5-ethyl-2-(2-methoxypyridin-4-yl)-6-[4-(2-methyl-1,3-oxazole-5-carbonyl)piperazin-1-yl]-7-oxo-4H,7H-[1,2,4]triazolo[1,5-a]pyrimidin-4-yl]acetamide]",5 to 50
9,"CCc1c(N2CCN(C(=O)c3nnn[nH]3)CC2)c(=O)n2nc(C3=CCOCC3)nc2n1CC(=O)Nc1ccc(C(F)(F)F)cc1Cl [Compound I-17, N-[2-chloro-4-(trifluoromethyl)phenyl]-2-[2-(3,6-dihydro-2H-pyran-4-yl)-5-ethyl-7-oxo-6-[4-(1H-1,2,3,4-tetrazole-5-carbonyl)piperazin-1-yl]-4H,7H-[1,2,4]triazolo[1,5-a]pyrimidin-4-yl]acetamide]",5 to 50
10,"CCc1c(N2CCN(C(=O)c3cnn(C)c3O)CC2)c(=O)n2nc(C3=CCOCC3)nc2n1CC(=O)Nc1ccc(C(F)(F)F)cc1Cl [Compound I-26, N-[2-chloro-4-(trifluoromethyl)phenyl]-2-[2-(3,6-dihydro-2H-pyran-4-yl)-5-ethyl-6-[4-(5-hydroxy-1-methyl-1H-pyrazole-4-carbonyl)piperazin-1-yl]-7-oxo-4H,7H-[1,2,4]triazolo[1,5-a]pyrimidin-4-yl]acetamide]",5 to 50
11,"CCc1c(N2CCN(C(=O)c3nnn(C)n3)CC2)c(=O)n2nc(-c3ccnc(OC)c3)nc2n1CC(=O)Nc1ccc(C(F)(F)F)cc1Cl [Compound I-74, N-[2-chloro-4-(trifluoromethyl)phenyl]-2-[5-ethyl-2-(2-methoxypyridin-4-yl)-6-[4-(2-methyl-2H-1,2,3,4-tetrazole-5-carbonyl)piperazin-1-yl]-7-oxo-4H,7H-[1,2,4]triazolo[1,5-a]pyrimidin-4-yl]acetamide]",5 to 50
12,"CCc1c(N2CCN(C(C)=O)CC2)c(=O)n2nc(-c3ccnc(OC)c3)nc2n1CC(=O)Nc1ccc(C(F)(F)F)cc1Cl [Compound I-46, 2-[6-(4-acetylpiperazin-1-yl)-5-ethyl-2-(2-methoxypyridin-4-yl)-7-oxo-4H,7H-[1,2,4]triazolo[1,5-a]pyrimidin-4-yl]-N-[2-chloro-4-(trifluoromethyl)phenyl]acetamide]",5 to 50
13,"CCc1c(N2CCN(C(C)=O)CC2)c(=O)n2nc(-c3cnc(C(C)(C)O)s3)nc2n1CC(=O)Nc1ccc(C(F)(F)F)cc1Cl [Compound I-87, 2-[6-(4-acetylpiperazin-1-yl)-5-ethyl-2-[2-(2-hydroxypropan-2-yl)-1,3-thiazol-5-yl]-7-oxo-4H,7H-[1,2,4]triazolo[1,5-a]pyrimidin-4-yl]-N-[2-chloro-4-(trifluoromethyl)phenyl]acetamide]",5 to 50
14,"CCc1c(N2CCN(C(=O)c3nnc(C)s3)CC2)c(=O)n2nc(C3=CCOCC3)nc2n1CC(=O)Nc1ccc(C(F)(F)F)cc1Cl [Compound I-41, N-[2-chloro-4-(trifluoromethyl)phenyl]-2-[2-(3,6-dihydro-2H-pyran-4-yl)-5-ethyl-6-[4-(5-methyl-1,3,4-thiadiazole-2-carbonyl)piperazin-1-yl]-7-oxo-4H,7H-[1,2,4]triazolo[1,5-a]pyrimidin-4-yl]acetamide]",5 to 50
15,"CCc1c(N2CCN(C(=O)c3nocc3O)CC2)c(=O)n2nc(-c3ccnc(OC)c3)nc2n1CC(=O)Nc1ccc(C(F)(F)F)cc1Cl [Compound I-88, N-[2-chloro-4-(trifluoromethyl)phenyl]-2-{5-ethyl-6-[4-(4-hydroxy-1,2-oxazole-3-carbonyl)piperazin-1-yl]-2-(2-methoxypyridin-4-yl)-7-oxo-4H,7H-[1,2,4]triazolo[1,5-a]pyrimidin-4-yl}acetamide]",5 to 50
